Measured values reported in patent publication US20030007998A1, “Unsaturated lipid-enriched feedstock for ruminants” (priority 2001, published 2003).

What was measured:
Hereford steers [1] = test: Beef cattle feeding trial, dietary monensin in linseed oil diet; type: in vivo
Procedure: (§1) Eight Hereford steers are selected and equipped with rumen and duodenal cannulae. All steers are housed in individual tie stalls. The duration of the trial is the last 90 days of the finishing period.
(§2) The eight steers are used in two four-by-four Latin Square designs. Each square has four steers with four treatments imposed. The four treatments are 0, 10, 40 and 70 mg of dietary monensin. Each square has a different source of dietary fatty acids. In the first square, dietary fat is supplied by linseed oil, which has a high proportion of fatty acid linolenate. The second square has the dietary fat supplied by MEGALAC, which is a calcium salt of palm oil fatty acids having a high proportion of fatty acid oleate.
(§3) Steers are fed identical diets in both squares except for source of fatty acids, and the diets are formulated for high rate of body weight gain (1 kg/day). All diets are calculated to deliver 0.75 kg/steer/day of added dietary linseed oil or MEGALAC. Remaining dietary ingredients are low in fat, and include corn silage, corn, barley, soybean meal, bloodmeal, Smartamine-M (rumen bypass methionine), sodium bicarbonate and vitamin-mineral premix. All diets are offered as Total Mixed Rations twice daily in quantities to assure at least 10% refusal per day of the amount offered.
(§4) Steers are fed their assigned diets for two weeks, with week one as an adaptation and week two as the experimental feeding period. Sampling is on the last 3 days of this second week. All steers are then moved onto a different diet in such a manner that by the end of the trial all steers have received all diets within each Latin Square.
(§5) During the second week of each period daily dry matter intakes are recorded. Total mixed rations are sampled daily and composited weekly. These are analyzed for crude protein, NDF and total fat. During the last 3 days of the second week individual body weights are recorded.
(§6) During the last 3 days of the second week rate of passage from the rumen is estimated using dye marker techniques. The liquid and solids markers are placed into the rumen daily beginning on day 7 of the adaptation period, with duodenal samples taken on the last 3 days of the experimental period. Duodenal samples are stored frozen for later analysis of total fat, fatty acid profile and marker. Concurrent rumen samples are taken. Liquid turnover rate is estimated from the dilution of dye in the liquid portion of rumen samples. Rumen contents are assayed for total fat, fatty acid profile and marker. Each Latin square is analyzed separately.

Hereford steers [2] = test: Beef cattle feeding trial, dietary monensin in MEGALAC diet; type: in vivo
Procedure: as §1, §2, §3, §4, §5, §6

Holstein cows [3] = test: Dairy cattle feeding trial, dietary monensin in linseed oil diets; type: in vivo
Procedure: (§7) Eight Holstein cows are selected and equipped with rumen and duodenal cannulae. All cows are housed in individual tie stalls and are commencing the trial at 45 days in lactation.
as §2, with “cows” for “steers”, “employed” for “used”, “mg/kg DM” for “mg”
(§8) Cows are fed identical diets in both squares except for source of fatty acids, and are formulated for high production. Nutrient composition is formulated for all diets at 17% crude protein with 65% as rumen undegradable protein, 26% Neutral Detergent Fiber, 1.7 Mcal/kg net energy. All diets contain 4% added fat on a dry matter basis from MEGALAC or linseed oil. A daily dry matter intake of 25 kg/cow is calculated to deliver approximately 1 kg of linseed oil or MEGALAC per cow per day. Remaining dietary ingredients are low in fat, and include alfalfa haylage, corn silage, corn, barley, soybean meal, blood meal, Smartamine-M (rumen bypass methionine), sodium bicarbonate and vitamin-mineral premix. All diets are offered as Total Mixed Rations twice daily in quantities to assure at least 10% refusal per day of the amount offered.
as §4, with “Cows” for “Steers”, “cows” for “steers”
(§9) During the second week of each period daily, dry matter intake and milk production are recorded. Total mixed rations are sampled daily and composited weekly. These are analyzed for crude protein, NDF and total fat. During the last 3 days of the second week individual proportional milk samples are taken and separated into two subsamples. One subsample is used to assay for total fat content and true protein, and the second is frozen for subsequent analysis of fatty acid profile in the milk.
as §6, with “week,” for “week”, “duodonal” for “duodenal”

Holstein cows [4] = test: Dairy cattle feeding trial, dietary monensin in MEGALAC diet; type: in vivo
Procedure: as §7
as §2, with “cows” for “steers”, “employed” for “used”, “mg/kg DM” for “mg”
as §8
as §4, with “Cows” for “Steers”, “cows” for “steers”
as §9
as §6, with “week,” for “week”, “duodonal” for “duodenal”

rumen fluid = conditions: in vitro, J. Dairy Sci., 78, 2797 (1995); cited from earlier work
[5] = 10 and 40 mg monensin, P<0.05, steers
[6] = 40 mg monensin, P<0.05, linseed oil diet
[7] = 70 mg monensin, P<0.05, linseed oil diet
[8] = 40 mg monensin, P<0.05, MEGALAC diet
[9] = 70 mg monensin, P<0.05, MEGALAC diet

CC[C@@]1([C@@H]2O[C@@H]([C@H]3O[C@@](O)(CO)[C@H](C)C[C@@H]3C)C[C@@H]2C)CC[C@H]([C@]2(C)CC[C@]3(C[C@H](O)[C@@H](C)[C@@H]([C@@H](C)[C@@H](OC)[C@H](C)C(=O)O)O3)O2)O1 [monensin]
Rumen rate of passage (Hereford steers [1]; 10 mg monensin, P<0.1, steers): tends to increase | DMI (Hereford steers [1]; 10 mg monensin, steers): no significant effect | Rumen liquid turnover rate increase (Hereford steers [1]; 70 mg monensin, P<0.1, steers): 5% | Bypass linolenic acid (Hereford steers [1]; 70 mg monensin, steers): about 29% | Increase of linolenic acid in duodenal contents (Hereford steers [1]; [5]): 24 percentage points | Rumen bypass rate for linolenic acid (Hereford steers [1]; 10 and 40 mg monensin, steers (0 mg: about 10%)): 34% | DMI reduction (Hereford steers [1]; 40 and 70 mg monensin diets, steers): 5% | Rumen rate of passage increase (Hereford steers [1]; 40 and 70 mg monensin, steers): 6% | Rumen liquid turnover rate (Hereford steers [1]; between 0, 40 and 70 mg monensin, steers): not different | DMI (Hereford steers [2]; 10 mg monensin addition, steers): no effect | Rumen rate of passage (Hereford steers [2]; 10 mg monensin, P<0.1, steers): tends to increase | Rumen liquid turnover rate increase (Hereford steers [2]; 70 mg monensin, P<0.1, steers): 4% | Bypass linolenic acid (Hereford steers [2]; 70 mg monensin, steers): about 39% | Increase of oleic acid in duodenal contents (Hereford steers [2]; [5]): 22 percentage points | Estimated rumen bypass rate for oleic acid (Hereford steers [2]; 10 and 40 mg monensin, steers (0 mg: 66%)): 88% | DMI reduction compared to controls (Hereford steers [2]; 40 and 70 mg monensin, steers): 8% | Rumen rate of passage increase (Hereford steers [2]; 40 and 70 mg monensin, steers): 5.4% | Rumen liquid turnover rate (Hereford steers [2]; between 0, 10 and 40 mg monensin, steers): not different | DMI (Holstein cows [3]; 0 to 70 mg monensin addition, linseed oil diet, dairy cows): no effect | Milk linolenate increase vs. 0 mg supplementation (Holstein cows [3]; 10 mg monensin, P<0.05, linseed oil diet): 25% | Rumen rate of passage (Holstein cows [3]; 10 mg monensin, P<0.1, linseed oil diet): tends to increase | Milk production improvement (Holstein cows [3]; 10 mg monensin, tends (P<0.1), linseed oil diet): 3 lbs. per day | Milk linolenate increase vs. 0 mg supplementation (Holstein cows [3]; [6]): 28% | Milk production improvement (Holstein cows [3]; [6]): 3.5 lb/day | Milk production (Holstein cows [3]; 70 mg monensin vs 40 mg, linseed oil diet): no further improvement | Milk fat percentage reduction (Holstein cows [3]; [7]): 0.3 percentage points | Milk linolenate increase vs. 0 mg supplementation (Holstein cows [3]; [7]): 37% | Rumen liquid turnover rate increase (Holstein cows [3]; 70 mg monensin, P<0.1, linseed oil diet): 5% | Bypass linolenic acid (Holstein cows [3]; 70 mg monensin, linseed oil diet): about 30% | Increase of linolenic acid in duodenal contents (Holstein cows [3]; 10 and 40 mg monensin, P<0.05, linseed oil diet): 20 percentage points | Estimated rumen bypass rate for linolenic acid (Holstein cows [3]; 10 and 40 mg monensin, linseed oil diet (0 mg: 8%)): 28% | Rumen rate of passage increase (Holstein cows [3]; 40 and 70 mg monensin, linseed oil diet): 6% | Rumen liquid turnover rate (Holstein cows [3]; between 0, 10 and 40 mg monensin, linseed oil diet): not different | Milk protein percentages (Holstein cows [3]; diets with different concentrations of monensin, linseed oil diet): not different | Milk fat percentage (Holstein cows [3]; lower inclusion rates of monensin, linseed oil diet): only a tendency for a reduction | DMI (Holstein cows [4]; 0 to 70 mg monensin addition, MEGALAC diet, dairy cows): no effect | Milk oleate increase vs. 0 mg supplementation (Holstein cows [4]; 10 mg monensin, P<0.05, MEGALAC diet): 22% | Rumen rate of passage (Holstein cows [4]; 10 mg monensin, P<0.1, MEGALAC diet): tends to increase | Milk production improvement (Holstein cows [4]; 10 mg monensin, tends (P<0.1), MEGALAC diet): 2.8 lbs. per day | Milk oleate increase vs. 0 mg supplementation (Holstein cows [4]; [8]): 31% | Milk production improvement (Holstein cows [4]; [8]): 3.9 lb/day | Milk production (Holstein cows [4]; 70 mg monensin vs 40 mg, MEGALAC diet): no further improvement | Bypass linolenic acid (Holstein cows [4]; 70 mg monensin, MEGALAC diet): about 33% | Milk fat percentage reduction (Holstein cows [4]; [9]): 0.25 percentage points | Milk oleate increase vs. 0 mg supplementation (Holstein cows [4]; [9]): 39% | Rumen liquid turnover rate increase (Holstein cows [4]; 70 mg monensin, P<0.1, MEGALAC diet): 6% | Estimated rumen bypass rate for oleic acid (Holstein cows [4]; 10 and 40 mg monensin, MEGALAC diet (0 mg: 56%)): 74% | Increase of oleic acid in duodenal contents (Holstein cows [4]; 10 and 40 mg monensin, P<0.05, MEGALAC diet): 18 percentage points | Rumen rate of passage increase (Holstein cows [4]; 40 and 70 mg monensin, MEGALAC diet): 6.4% | Rumen liquid turnover rate (Holstein cows [4]; between 0, 10 and 40 mg monensin, MEGALAC diet): not different | Milk protein percentages (Holstein cows [4]; diets with different concentrations of monensin, MEGALAC diet): not different | Milk fat percentage (Holstein cows [4]; lower inclusion rates of monensin, MEGALAC diet): only a tendency for a reduction

CC1(C)S[C@@H]2[C@H](NC(=O)[C@H](N)c3ccc(O)cc3)C(=O)N2[C@H]1C(=O)O [amoxicillin]
Antimicrobial inhibition of lipolysis and lipid biohydrogenation of soybean oil (rumen fluid): most potent inhibitors
